For 29 molecules, IC50 results are on record in patent US11999728B2, “Estrogen receptor modulators” (Recurium IP Holdings, LLC, priority 2020, dated 2024).

Where only a bound is given, the exact number is not on record here.

The assay relates to MCF7. The assay can be described thus: Breast Cancer Cell Proliferation Assay (MCF-7), Cell Titer-Glo. It is filed as cell-based. As to conditions: Homo sapiens, MCF7, 120 h, MCF7 cells, 5 days of compound exposure. Here is the method: Breast Cancer Cell Proliferation Assay (MCF-7)
MCF7 was expanded and maintained in the medium (Phenol red free DMEM/F12 (Hyclone SH30272.01) NEAA (Gibco11140-050) Na-pyruvate (Gibco 11360-070) and Re-stripped Charcoal stripped FBS (Gemini 100-119)). The cells were adjusted to a concentration of 3,000 cells per mL in the above media, and the cells were incubated (37° C., 5% CO2). The following day a 10-point, serial dilution of compounds was added to the cells at a final concentration ranging from 10-0.000005 μM for test compounds (17β-estradiol was used as a control). Additional cells were plated in 30 wells to serve as the day 1 (pretreatment) comparison. After 5 days of compound exposure, Cell Titer-Glo reagent was added to the cells and the relative luminescence units (RLUs) of each well was determined. Cell Titer-Glo was also added to 32 μL of medium without cells to obtain a background value. The plates were allowed to incubate at room temperature for 10 minutes to stabilize luminescent signal and the luminescence signal was recorded with EnSpire. The relative increase in cell number of each sample is determined as follows: (RLU sample-RLU background/RLU estrogen only treated cells-RLU background)×100=% inhibition.
In general terms: Cellular ATP, detected with luciferase, serves as a proxy for viable cell number.
As to `C[C@@H]1Cc2c([nH]c3ccccc23)[C@@H](c2cnc(N[C@H]3CCN(CCCF)C3)cn2)N1C12CC(C1)C2` [Compound 44, 5-((1S,3R)-2-(bicyclo[1.1.1]pentan-1-yl)-3-methyl-2,3,4,9-tetrahydro-1H-pyrido[3,4-b]indol-1-yl)-N—((S)-1-(3-fluoropropyl)pyrrolidin-3-yl)pyrazin-2-amine], the IC50 (as a rule, the concentration that inhibits the measured activity by half) is ≥ 250 nM.

For the molecule `C[C@@H]1Cc2c([nH]c3ccccc23)[C@@H](c2ccc(N[C@H]3CCN(CCCF)C3)nc2)N1C12CC(C1)C2` [Compound 20, 5-((1R,3R)-2-(bicyclo[1.1.1]pentan-1-yl)-3-methyl-2,3,4,9-tetrahydro-1H-pyrido[3,4-b]indol-1-yl)-N—((S)-1-(3-fluoropropyl)pyrrolidin-3-yl)pyridin-2-amine], the IC50 is ≤ 25 nM.

On to `CCCCN1C[C@@H](F)[C@H](Nc2ccc([C@@H]3c4[nH]c5ccccc5c4C[C@@H](C)N3C34CC(C3)C4)cc2)C1` [Compound 84, (3R,4R)—N-(4-((1R,3R)-2-(bicyclo[1.1.1]pentan-1-yl)-3-methyl-2,3,4,9-tetrahydro-1H-pyrido[3,4-b]indol-1-yl)phenyl)-1-butyl-4-fluoropyrrolidin-3-amine], for which the IC50 was ≤ 25 nM.

`CCCN1CC(Oc2ccc([C@H]3c4[nH]c5ccccc5c4C[C@H](C)N3C34CC(CO)(C3)C4)cc2)C1` (single isomer, unassigned) [Compound 53]: the IC50 lay within 25 to 250 nM. As for `C[C@@H]1Cc2c([nH]c3ccccc23)[C@@H](c2ccc(NC3CN(CC(C)(F)F)C3)cc2)N1C12CC(C1)C2` [Compound 88, N-(4-((1R,3R)-2-(bicyclo[1.1.1]pentan-1-yl)-3-methyl-2,3,4,9-tetrahydro-1H-pyrido[3,4-b]indol-1-yl)phenyl)-1-(2,2-difluoropropyl)azetidin-3-amine], the figure is 25 to 250 nM; as for `C[C@H]1Cc2c([nH]c3ccccc23)[C@H](c2c(F)cc(N[C@H]3CCN(CCCF)C3)cc2F)N1C12CC(CO)(C1)C2` (single isomer, unassigned) [Compound 71], ≤ 25 nM. In the case of `C[C@@H]1Cc2c([nH]c3ccccc23)[C@@H](c2c(F)cc(O[C@H]3CCN(CCCF)C3)cc2F)N1C12CC(C#N)(C1)C2` (single isomer, unassigned) [Compound 36], the IC50 was ≥ 250 nM. With `CCCN1C[C@H](F)[C@H](Nc2ccc([C@@H]3c4[nH]c5ccccc5c4C[C@@H](C)N3C34CC(C3)C4)cc2)C1` (single isomer, unassigned) [Compound 85], the IC50 was ≤ 25 nM. As to `C[C@@H]1Cc2c([nH]c3ccccc23)[C@@H](c2ccc(OC3CN(C4CC4)C3)cc2)N1C12CC(C1)C2` [Compound 47, (1R,3R)-2-(bicyclo[1.1.1]pentan-1-yl)-1-(4-((1-cyclopropylazetidin-3-yl)oxy)phenyl)-3-methyl-2,3,4,9-tetrahydro-1H-pyrido[3,4-b]indole], the IC50 is ≤ 25 nM. As for `C[C@H]1Cc2c([nH]c3ccccc23)[C@H](c2c(F)cc(NC3CN(CCCF)C3)cc2F)N1C12CC(CO)(C1)C2` (single isomer, unassigned) [Compound 17], the figure is ≥ 250 nM. In the case of `CCCNCC1CCN(c2ccc([C@@H]3c4[nH]c5ccccc5c4C[C@@H](C)N3C34CC(C3)C4)cc2)CC1` [Compound 93, N-((1-(4-((1R,3R)-2-(bicyclo[1.1.1]pentan-1-yl)-3-methyl-2,3,4,9-tetrahydro-1H-pyrido[3,4-b]indol-1-yl)phenyl)piperidin-4-yl)methyl)propan-1-amine] it was ≤ 25 nM; in that of `C[C@@H]1Cc2c([nH]c3ccccc23)[C@@H](c2ccc(OCCN3CC(CF)C3)cc2F)N1C12CC(C1)C2` [Compound 25, (1R,3R)-2-(bicyclo[1.1.1]pentan-1-yl)-1-(2-fluoro-4-(2-(3-(fluoromethyl)azetidin-1-yl)ethoxy)phenyl)-3-methyl-2,3,4,9-tetrahydro-1H-pyrido[3,4-b]indole], ≤ 25 nM; in that of `C[C@@H]1Cc2c([nH]c3ccccc23)[C@@H](c2c(F)cc(NC3CN(CCCF)C3)cc2F)N1C12CC(C(N)=O)(C1)C2` (single isomer, unassigned) [Compound 76], 25 to 250 nM. Consider `CCCN1CC[C@H](Nc2cnc([C@@H]3c4[nH]c5ccccc5c4C[C@@H](C)N3C34CC(C3)C4)cn2)C1` [Compound 54, 5-((1S,3R)-2-(bicyclo[1.1.1]pentan-1-yl)-3-methyl-2,3,4,9-tetrahydro-1H-pyrido[3,4-b]indol-1-yl)-N—((S)-1-propylpyrrolidin-3-yl)pyrazin-2-amine], for which the IC50 was ≤ 25 nM. As to `C[C@@H]1Cc2c([nH]c3ccccc23)[C@@H](c2cnc(NC3CN(CCCF)C3)c(F)c2)N1C12CC(C1)C2` [Compound 41, 5-((1R,3R)-2-(bicyclo[1.1.1]pentan-1-yl)-3-methyl-2,3,4,9-tetrahydro-1H-pyrido[3,4-b]indol-1-yl)-3-fluoro-N-(1-(3-fluoropropyl)azetidin-3-yl)pyridin-2-amine], the IC50 is ≥ 250 nM. `C[C@@H]1Cc2c([nH]c3ccccc23)[C@@H](c2c(F)cc(O[C@@H]3CCN(CCCF)C3)cc2F)N1C12CC(C(N)=O)(C1)C2` (single isomer, unassigned) [Compound 34]: the IC50 is 25 to 250 nM. Regarding `C[C@@H]1Cc2c([nH]c3ccccc23)[C@@H](c2ncc(NC3CN(CCCF)C3)cc2F)N1C12CC(C1)C2` [Compound 13, 6-((1S,3R)-2-(bicyclo[1.1.1]pentan-1-yl)-3-methyl-2,3,4,9-tetrahydro-1H-pyrido[3,4-b]indol-1-yl)-5-fluoro-N-(1-(3-fluoropropyl)azetidin-3-yl)pyridin-3-amine], the IC50 is ≤ 25 nM. In the case of `C[C@@H]1Cc2c([nH]c3ccccc23)[C@@H](c2ncc(OC3CN(CCCF)C3)cc2F)N1C12CC(C1)C2` [Compound 14, (1S,3R)-2-(bicyclo[1.1.1]pentan-1-yl)-1-(3-fluoro-5-((1-(3-fluoropropyl)azetidin-3-yl)oxy)pyridin-2-yl)-3-methyl-2,3,4,9-tetrahydro-1H-pyrido[3,4-b]indole] it was ≤ 25 nM. As for `C[C@@H]1Cc2c([nH]c3ccccc23)[C@@H](c2ncc(NC3CN(CCCF)C3)cn2)N1C12CC(C1)C2` [Compound 60, 2-((1S,3R)-2-(bicyclo[1.1.1]pentan-1-yl)-3-methyl-2,3,4,9-tetrahydro-1H-pyrido[3,4-b]indol-1-yl)-N-(1-(3-fluoropropyl)azetidin-3-yl)pyrimidin-5-amine], the figure is ≥ 250 nM; as for `C[C@@H]1Cc2c([nH]c3ccccc23)[C@@H](c2c(F)cc(NC3CN(CCCF)C3)cc2F)N1C12CC(CO)(C1)C2` (single isomer, unassigned) [Compound 18], ≤ 25 nM. As for `C[C@@H]1Cc2c([nH]c3ccccc23)[C@@H](c2ncc(OC3CN(CCCF)C3)cn2)N1C12CC(C1)C2` [Compound 61, (1S,3R)-2-(bicyclo[1.1.1]pentan-1-yl)-1-(5-((1-(3-fluoropropyl)azetidin-3-yl)oxy)pyrimidin-2-yl)-3-methyl-2,3,4,9-tetrahydro-1H-pyrido[3,4-b]indole], the figure is ≥ 250 nM; as for `C[C@H]1Cc2c([nH]c3ccccc23)[C@H](c2ccc(NC3CN(CCCF)C3)cc2)N1C12CC(CF)(C1)C2` (single isomer, unassigned) [Compound 63], ≤ 25 nM; as for `C[C@@H]1Cc2c([nH]c3ccccc23)[C@@H](c2c(F)cc(NCCN3CCCC3)cc2F)N1C12CC(C1)C2` [Compound 22, 4-((1R,3R)-2-(bicyclo[1.1.1]pentan-1-yl)-3-methyl-2,3,4,9-tetrahydro-1H-pyrido[3,4-b]indol-1-yl)-3,5-difluoro-N-(2-(pyrrolidin-1-yl)ethyl)aniline], 25 to 250 nM. The molecule `C[C@@H]1Cc2c([nH]c3ccccc23)[C@@H](c2ccc(N[C@H]3CN(CCCF)C[C@@H]3O)cc2)N1C12CC(C1)C2` (single isomer, unassigned) [Compound 79] had an IC50 of 25 to 250 nM. As to `CCCN1C[C@@H](F)[C@@H](Nc2ccc([C@@H]3c4[nH]c5ccccc5c4C[C@@H](C)N3C34CC(C3)C4)cc2)C1` (single isomer, unassigned) [Compound 86], the IC50 was in the range of 25 to 250 nM. As for `CCCN1CC(Nc2ccc([C@@H]3c4[nH]c5ccccc5c4C[C@@H](C)N3C34CC(C3)C4)cn2)C1` [Compound 30, 5-((1R,3R)-2-(bicyclo[1.1.1]pentan-1-yl)-3-methyl-2,3,4,9-tetrahydro-1H-pyrido[3,4-b]indol-1-yl)-N-(1-propylazetidin-3-yl)pyridin-2-amine], the IC50 was ≥ 250 nM. Regarding `C[C@H]1Cc2c([nH]c3ccccc23)[C@H](c2ccc(OC3CN(CCCF)C3)cc2)N1C12CC(CO)(C1)C2` (single isomer, unassigned) [Compound 51], the IC50 fell in the range of 25 to 250 nM.

For the molecule `C[C@H]1Cc2c([nH]c3ccccc23)[C@H](c2c(F)cc(O[C@H]3CCN(CCCF)C3)cc2F)N1C12CC(C#N)(C1)C2` (single isomer, unassigned) [Compound 90], the IC50 was ≥ 250 nM. `C[C@@H]1Cc2c([nH]c3ccccc23)[C@@H](c2ccc(OC3CN(CCO)C3)cc2)N1C12CC(C1)C2` [Compound 46, 2-(3-(4-((1R,3R)-2-(bicyclo[1.1.1]pentan-1-yl)-3-methyl-2,3,4,9-tetrahydro-1H-pyrido[3,4-b]indol-1-yl)phenoxy)azetidin-1-yl)ethan-1-ol]: the IC50 is ≥ 250 nM.
